Data published in ChEMBL document CHEMBL2074070, “Circumvention of breast cancer resistance protein (BCRP)-mediated resistance to camptothecins in vitro using non-substrate drugs or the BCRP inhibitor GF120918” (Clin Cancer Res, 2001).

Legend:
Format in all cases: functional, cell-based
[1] = target: T1, Broad substrate specificity ATP-binding cassette transporter ABCG2 (Homo sapiens, UniProt Q9UNQ0); experiment: TP_TRANSPORTER: increase in Topotecan intracellular accumulation (Topotecan: 1.9 uM, GF120918: 2 uM) in MX3 cells
T1 sequence (Q9UNQ0 whole entry): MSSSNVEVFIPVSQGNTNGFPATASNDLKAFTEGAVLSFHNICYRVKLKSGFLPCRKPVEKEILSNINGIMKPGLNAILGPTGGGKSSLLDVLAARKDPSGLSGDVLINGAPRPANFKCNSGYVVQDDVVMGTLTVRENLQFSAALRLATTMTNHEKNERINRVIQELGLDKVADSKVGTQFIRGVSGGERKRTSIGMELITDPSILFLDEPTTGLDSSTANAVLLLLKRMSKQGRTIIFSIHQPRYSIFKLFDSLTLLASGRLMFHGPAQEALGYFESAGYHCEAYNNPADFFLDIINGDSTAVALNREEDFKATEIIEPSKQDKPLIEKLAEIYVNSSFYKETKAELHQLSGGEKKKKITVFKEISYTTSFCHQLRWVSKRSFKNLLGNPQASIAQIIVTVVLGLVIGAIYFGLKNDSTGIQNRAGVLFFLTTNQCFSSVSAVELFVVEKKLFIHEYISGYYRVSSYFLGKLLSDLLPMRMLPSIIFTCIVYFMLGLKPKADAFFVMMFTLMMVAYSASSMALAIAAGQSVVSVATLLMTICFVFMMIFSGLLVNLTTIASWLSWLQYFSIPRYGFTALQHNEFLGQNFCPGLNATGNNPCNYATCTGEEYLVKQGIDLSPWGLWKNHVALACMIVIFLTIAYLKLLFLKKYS

[2] = target: T1, Broad substrate specificity ATP-binding cassette transporter ABCG2; experiment: TP_TRANSPORTER: increase in Topotecan intracellular accumulation (Topotecan: 1.9 uM, GF120918: 2 uM) in T8 cells
[3] = target: T1, Broad substrate specificity ATP-binding cassette transporter ABCG2; experiment: TP_TRANSPORTER: increase of cytotoxicity by GF120918 in MX3 cells
[4] = target: T1, Broad substrate specificity ATP-binding cassette transporter ABCG2; experiment: TP_TRANSPORTER: increase of cytotoxicity by GF120918 in T8 cells
[5] = target: T1, Broad substrate specificity ATP-binding cassette transporter ABCG2; experiment: TP_TRANSPORTER: increase in intracellular accumulation by GF120918 in T8 cell

## COc1cc2c(cc1OC)CN(CCc1ccc(NC(=O)c3cccc4c(=O)c5cccc(OC)c5[nH]c34)cc1)CC2.Cl [ELACRIDAR HYDROCHLORIDE]
[1]
  Activity: inhibitor [+]
[2]
  Activity: inhibitor [+]

## CC[C@@]1(O)C(=O)OCc2c1cc1n(c2=O)Cc2c-1nc1cc(F)c(C)c3c1c2[C@@H](N)CC3 [EXATECAN]
[3]
  Activity: substrate []
[4]
  Activity: substrate []

## CC[C@@]1(O)C(=O)OCc2c1cc1n(c2=O)Cc2cc3c(CN(C)C)c(O)ccc3nc2-1 [TOPOTECAN]
[5]
  Activity: substrate [+]
